The assay deals with HaCaT keratinocytes. The assay is described as follows: Influence on keratinocyte proliferation (HaCaT, Cell Titer Viability Assay). Format: cell-based. The settings on record: Homo sapiens, 25 μM test compound, KBM/FCS, 1% DMSO, 48 hrs incubation, read-out: inhibition of keratinocyte proliferation compared to control experiments. As for the experimental part:
Influence of Compounds According to the Invention on Keratinocyte Proliferation
5×10^3 HaCaT keratinocytes were seeded into 60 wells of 96 well plates in 200 μl KBM/10% FCS and incubated for 24 hrs at 37° C. The test compounds were dissolved at 100 mM in DMSO. The test items were then diluted to a concentration of 25 μM in KBM/FCS with a final concentration of 1% DMSO. The test compounds, as well as the negative control for unstimulated cells (KBM/1% DMSO) and stimulated cells (KBM/FCS/1% DMSO), were added to the HaCaTs in triplicates and incubated for 48 hrs. At the end of the incubation period, the media was removed and cell numbers were determined with Cell Titer Viability Assay from Promega (#G7571/G7572) according to the manufacturer's instructions.

With `COc1cccc(C(=O)N2c3ccccc3-c3ccccc3C2c2c[nH]c3ccccc23)c1` (stereo not shown) [Example 11, [6-(1H-Indol-3-yl)-6H-phenanthridin-5-yl]-(3-methoxy-phenyl)-methanone], the inhibition at 25 µM is more than 50%.

The record behind these values is patent US7276606B2, “Phenantridine analogues and uses thereof” (4SC AG, priority 2004, dated 2007).
